Assay results published in ChEMBL document CHEMBL1125312, “Highly potent, orally active diester macrocyclic human renin inhibitors” (J Med Chem, 1992).
pIC50: −log10 of the molar value.

Assays:
Renin = target: T1, Renin (Homo sapiens, UniProt P00797); experiment: Inhibitory activity against human renin inhibition (at pH 7.4)
T1 sequence (P00797 whole entry): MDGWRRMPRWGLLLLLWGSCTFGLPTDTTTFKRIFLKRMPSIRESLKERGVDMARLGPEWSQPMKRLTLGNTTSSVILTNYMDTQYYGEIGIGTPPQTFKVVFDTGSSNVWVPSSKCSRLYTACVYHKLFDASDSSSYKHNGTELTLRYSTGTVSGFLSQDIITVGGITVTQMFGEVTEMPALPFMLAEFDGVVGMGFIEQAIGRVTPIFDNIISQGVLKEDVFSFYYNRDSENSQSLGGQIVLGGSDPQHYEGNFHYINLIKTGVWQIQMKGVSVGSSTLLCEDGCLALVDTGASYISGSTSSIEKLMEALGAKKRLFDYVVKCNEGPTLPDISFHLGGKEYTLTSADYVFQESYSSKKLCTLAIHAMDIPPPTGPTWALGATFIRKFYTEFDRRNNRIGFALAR

Rattus norvegicus [1] = experiment: Compound was evaluated for the percentage of feces excretion of radioactivity, by male Sprague-Dawley rats after intravenous administration of compound dose (1 mg/kg) at 0-24 hr; type: ADME, organism-based; details: in vivo
Rattus norvegicus [2] = experiment: Compound was evaluated for the percentage of urine excretion of radioactivity, by male Sprague-Dawley rats after intravenous administration of compound dose (1 mg/kg) at 0-24 hr; type: ADME, organism-based; details: in vivo
[3] = Cumulative dose excreted after intraduodenal administration at 6-8 hours in rats; type: ADME, organism-based; details: rat, in vivo
[4] = Cumulative dose excreted after intraduodenal administration at 0-0.5 hours in rats; type: ADME, organism-based; details: rat, in vivo
Rattus norvegicus [5] = experiment: Cumulative dose excreted after intravenous administration at 2-3 hours in rats; type: ADME, organism-based; details: in vivo
Rattus norvegicus [6] = experiment: Cumulative dose excreted after intravenous administration at 3-4 hours in rats; type: ADME, organism-based; details: in vivo
Rattus norvegicus [7] = experiment: Compound was evaluated for the percentage of feces excretion of radioactivity, by male Sprague-Dawley rats after oral administration of compound dose (1 mg/kg) at 24-48 hr; type: ADME, organism-based; details: in vivo
Rattus norvegicus [8] = experiment: Cumulative dose excreted after intravenous administration at 6-8 hours in rats; type: ADME, organism-based; details: in vivo
[9] = Cumulative dose excreted after intraduodenal administration at 0.5-1.0 hours in rats; type: ADME, organism-based; details: rat, in vivo
Rattus norvegicus [10] = experiment: Cumulative dose excreted after intravenous administration at 0-0.5 hours in rats; type: ADME, organism-based; details: in vivo
[11] = Cumulative dose excreted after intraduodenal administration at 2-3 hours in rats; type: ADME, organism-based; details: rat, in vivo
Rattus norvegicus [12] = experiment: Cumulative dose excreted after intraduodenal administration at 8-24 hours in rats; type: ADME, organism-based; details: in vivo, other
Rattus norvegicus [13] = experiment: Compound was evaluated for the percentage of feces excretion of radioactivity, by male Sprague-Dawley rats after oral administration of compound dose (1 mg/kg) at 48-72 hr; type: ADME, organism-based; details: in vivo
[14] = Cumulative dose excreted after intraduodenal administration at 1.0-1.5 hours in rats; type: ADME, organism-based; details: rat, in vivo
Rattus norvegicus [15] = experiment: Compound was evaluated for the percentage of urine excretion of radioactivity, by male Sprague-Dawley rats after intravenous administration of compound dose (1 mg/kg) at 24-48 hr; type: ADME, organism-based; details: in vivo
[16] = Cumulative dose excreted after intravenous administration at 0.5-1 hours in rats; type: ADME, organism-based; details: rat, in vivo
Rattus norvegicus [17] = experiment: Cumulative dose excreted after intravenous administration at 8-24 hours in rats; type: ADME, organism-based; details: in vivo
Rattus norvegicus [18] = experiment: Cumulative dose excreted after intraduodenal administration at 4-6 hours in rats; type: ADME, organism-based; details: in vivo, other
Rattus norvegicus [19] = experiment: Compound was evaluated for the percentage of urine excretion of radioactivity, by male Sprague-Dawley rats after oral administration of compound dose (1 mg/kg) at 0-24 hr; type: ADME, organism-based; details: in vivo
Rattus norvegicus [20] = experiment: Cumulative dose excreted after intravenous administration at 4-6 hours in rats; type: ADME, organism-based; details: in vivo
Rattus norvegicus [21] = experiment: Compound was evaluated for the percentage of feces excretion of radioactivity, by male Sprague-Dawley rats after oral administration of compound dose (1 mg/kg) at 0-24 hr; type: ADME, organism-based; details: in vivo
Rattus norvegicus [22] = experiment: Compound was evaluated for the percentage of urine excretion of radioactivity, by male Sprague-Dawley rats after oral administration of compound dose (1 mg/kg) at 24-48 hr; type: ADME, organism-based; details: in vivo
Rattus norvegicus [23] = experiment: Compound was evaluated for the percentage of urine excretion of radioactivity, by male Sprague-Dawley rats after oral administration of compound dose (1 mg/kg) at 48-72 hr; type: ADME, organism-based; details: in vivo
Rattus norvegicus [24] = experiment: Compound was evaluated for the percentage of feces excretion of radioactivity, by male Sprague-Dawley rats after intravenous administration of compound dose (1 mg/kg) at 24-48 hr; type: ADME, organism-based; details: in vivo
[25] = Cumulative dose excreted after intravenous administration at 1.0-1.5 hours in rats; type: ADME, organism-based; details: rat, in vivo
Rattus norvegicus [26] = experiment: Cumulative dose excreted after intravenous administration at 1.5-2 hours in rats; type: ADME, organism-based; details: in vivo
[27] = Cumulative dose excreted after intraduodenal administration at 3-4 hours in rats; type: ADME, organism-based; details: rat, in vivo
[28] = Cumulative dose excreted after intraduodenal administration at 1.5-2.0 hours in rats; type: ADME, organism-based; details: rat, in vivo

## O=C1CCC[C@H](CN2CCOCC2)OC(=O)[C@H](O)[C@H](CC2CCCCC2)NC(=O)[C@@H](NC(=O)[C@H](Cc2ccccc2)NC2CN3CCC2CC3)CO1 (stereo not given in full)
Renin
  pIC50: 8.89
Rattus norvegicus [1]
  Dose excreted: 43.5%
Rattus norvegicus [2]
  Dose excreted: 18.5%
[3]
  Dose excreted: 4.4%
[4]
  Dose excreted: 2.4%
Rattus norvegicus [5]
  Dose excreted: 46.4%
Rattus norvegicus [6]
  Dose excreted: 46.9%
Rattus norvegicus [7]
  Dose excreted: 3.3%
Rattus norvegicus [8]
  Dose excreted: 47.9%
[9]
  Dose excreted: 3.3%
Rattus norvegicus [10]
  Dose excreted: 35.7%
[11]
  Dose excreted: 4%
Rattus norvegicus [12]
  Dose excreted: 4.7%
Rattus norvegicus [13]
  Dose excreted: 0.2%
[14]
  Dose excreted: 3.6%
Rattus norvegicus [15]
  Dose excreted: 0.7%
[16]
  Dose excreted: 42.7%
Rattus norvegicus [17]
  Dose excreted: 48.7%
Rattus norvegicus [18]
  Dose excreted: 4.3%
Rattus norvegicus [19]
  Dose excreted: 3.1%
Rattus norvegicus [20]
  Dose excreted: 47.5%
Rattus norvegicus [21]
  Dose excreted: 81.7%
Rattus norvegicus [22]
  Dose excreted: 0.7%
Rattus norvegicus [23]
  Dose excreted: 0.3%
Rattus norvegicus [24]
  Dose excreted: 3.5%
[25]
  Dose excreted: 44.6%
Rattus norvegicus [26]
  Dose excreted: 45.5%
[27]
  Dose excreted: 4.2%
[28]
  Dose excreted: 3.9%

## CN(C)CC1CCCC(=O)OC[C@H](NC(=O)C(Cc2ccccc2)NC(=O)OC(C)(C)C)C(=O)N[C@@H](CC2CCCCC2)[C@@H](O)C(=O)O1 (single isomer, unassigned; diastereomer 1)
Renin
  pIC50: 8.41

## CC(C)(C)OC(=O)NC(Cc1ccccc1)C(=O)N[C@H]1COC(=O)CCCCOC(=O)[C@H](O)[C@H](CC2CCCCC2)NC1=O (single isomer, unassigned; diastereomer 1)
Renin
  pIC50: 8.47

## CC(C)(C)CC1CCC(=O)OC[C@H](NC(=O)C(Cc2ccccc2)NC(=O)OC(C)(C)C)C(=O)N[C@@H](CC2CCCCC2)[C@@H](O)C(=O)O1 (single isomer, unassigned; diastereomer 1)
Renin
  pIC50: 6.24

## CCCCC1CCCC(=O)OC[C@H](NC(=O)C(Cc2ccccc2)NC(=O)OC(C)(C)C)C(=O)N[C@@H](CC2CCCCC2)[C@@H](O)C(=O)O1 (single isomer, unassigned; diastereomer 1)
Renin
  pIC50: 7.66

## CC(C)(C)OC(=O)NC(Cc1ccccc1)C(=O)N[C@H]1COC(=O)CCC(CN2CCOCC2)OC(=O)[C@H](O)[C@H](CC2CCCCC2)NC1=O (single isomer, unassigned; diastereomer 1)
Renin
  pIC50: 8.12

## CC(C)(C)OC(=O)NC(Cc1ccccc1)C(=O)N[C@H]1COC(=O)CCCOC(=O)[C@H](O)[C@H](CC2CCCCC2)NC1=O (single isomer, unassigned; diastereomer 1)
Renin
  pIC50: 7.24

## CC(C)(C)OC(=O)NC(Cc1ccccc1)C(=O)N[C@H]1CCC(=O)OCCOC(=O)[C@H](O)[C@H](CC2CCCCC2)NC1=O (single isomer, unassigned; diastereomer 1)
Renin
  pIC50: 6.08

## CC(C)(C)OC(=O)NC(Cc1ccccc1)C(=O)N[C@H]1CCC(=O)OCC(CN2CCOCC2)OC(=O)[C@H](O)[C@H](CC2CCCCC2)NC1=O (single isomer, unassigned; diastereomer 1)
Renin
  pIC50: 7.77

## CCN(CC)CC1CCCC(=O)OC[C@H](NC(=O)C(Cc2ccccc2)NC(=O)OC(C)(C)C)C(=O)N[C@@H](CC2CCCCC2)[C@@H](O)C(=O)O1 (single isomer, unassigned; diastereomer 1)
Renin
  pIC50: 8.15

## CC(C)(C)OC(=O)NC(Cc1ccccc1)C(=O)N[C@H]1COC(=O)CCCC(CNC(=O)OCC(Cl)(Cl)Cl)OC(=O)[C@H](O)[C@H](CC2CCCCC2)NC1=O (single isomer, unassigned; diastereomer 2)
Renin
  pIC50: 6.74

## CC(C)CC1CCCC(=O)OC[C@H](NC(=O)C(Cc2ccccc2)NC(=O)OC(C)(C)C)C(=O)N[C@@H](CC2CCCCC2)[C@@H](O)C(=O)O1 (single isomer, unassigned; diastereomer 2)
Renin
  pIC50: 6.48

## CC(C)(C)CC1CCC(=O)OC[C@H](NC(=O)C(Cc2ccccc2)NC(=O)OC(C)(C)C)C(=O)N[C@@H](CC2CCCCC2)[C@@H](O)C(=O)O1 (single isomer, unassigned; diastereomer 2)
Renin
  pIC50: < 4.70

## CCCCC1COC(=O)CC[C@H](NC(=O)C(Cc2ccccc2)NC(=O)OC(C)(C)C)C(=O)N[C@@H](CC2CCCCC2)[C@@H](O)C(=O)O1 (single isomer, unassigned; diastereomer 2)
Renin
  pIC50: 6.70

## CC(C)CC1CCC(=O)OC[C@H](NC(=O)C(Cc2ccccc2)NC(=O)OC(C)(C)C)C(=O)N[C@@H](CC2CCCCC2)[C@@H](O)C(=O)O1 (single isomer, unassigned; diastereomer 2)
Renin
  pIC50: 5.21

## CC(C)(C)OC(=O)NC(Cc1ccccc1)C(=O)N[C@H]1COC(=O)CCCC(CN2CCOCC2)OC(=O)[C@H](O)[C@H](CC2CCCCC2)NC1=O (single isomer, unassigned; diastereomer 2)
Renin
  pIC50: 6.77

## CC(C)(C)CC1CCCC(=O)OC[C@H](NC(=O)C(Cc2ccccc2)NC(=O)OC(C)(C)C)C(=O)N[C@@H](CC2CCCCC2)[C@@H](O)C(=O)O1 (single isomer, unassigned; diastereomer 2)
Renin
  pIC50: 5.92

## CCCCC1CCCC(=O)OC[C@H](NC(=O)C(Cc2ccccc2)NC(=O)OC(C)(C)C)C(=O)N[C@@H](CC2CCCCC2)[C@@H](O)C(=O)O1 (single isomer, unassigned; diastereomer 2)
Renin
  pIC50: 6.74

## CC(C)(C)OC(=O)NC(Cc1ccccc1)C(=O)N[C@H]1COC(=O)CCC(CN2CCOCC2)OC(=O)[C@H](O)[C@H](CC2CCCCC2)NC1=O (single isomer, unassigned; diastereomer 2)
Renin
  pIC50: 5.19

## CC(C)(C)OC(=O)NC(Cc1ccccc1)C(=O)N[C@H]1CCC(=O)OCC(CN2CCOCC2)OC(=O)[C@H](O)[C@H](CC2CCCCC2)NC1=O (single isomer, unassigned; diastereomer 2)
Renin
  pIC50: 4.70

## CCN(CC)CC1CCCC(=O)OC[C@H](NC(=O)C(Cc2ccccc2)NC(=O)OC(C)(C)C)C(=O)N[C@@H](CC2CCCCC2)[C@@H](O)C(=O)O1 (single isomer, unassigned; diastereomer 2)
Renin
  pIC50: 6.85

## CN(C)CC1CCCC(=O)OC[C@H](NC(=O)C(Cc2ccccc2)NC(=O)OC(C)(C)C)C(=O)N[C@@H](CC2CCCCC2)[C@@H](O)C(=O)O1 (stereo in doubt; 4t)
Renin
  pIC50: 7.07
